According to patent US20110009435A1, “HETERO BICYCLIC CARBOXAMIDE DERIVATIVES AND THEIR PHARMACEUTICAL USE AND COMPOSITIONS” (Pfizer, Inc., priority 2007, published 2011):

Experiments:
Type in all cases: biochemical
[1] = target: T1, Human recombinant MMP-13 (Homo sapiens, UniProt P45452); assay: In vitro MMP inhibition assay, MMP-13 (fluorogenic peptide substrate cleavage, Ki); conditions: human MMP-13, full length (FL); read-out: hMMP Ki 13/FL
T1 construct: made in house; host or cells: baculovirus expression (insect cells)
How it was run: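 Baculovirus-expressed proenzyme, APMA- or trypsin-activated, preincubated 1 h at room temperature with inhibitor in pH 7.5 Tris/NaCl/CaCl2 buffer, 1% DMSO. Then 4 μM MCA/Dpa quenched peptide added; fluorescence rate read at 330/420 nm. Ki from Morrison-equation regression, substrate at or below Km, uncorrected.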

[2] = target: T2, Human recombinant MMP-15 (Homo sapiens, UniProt P51511); assay: In vitro MMP inhibition assay, MMP-15 catalytic domain (fluorogenic peptide substrate cleavage, Ki); conditions: human MMP-15, catalytic domain (CD); read-out: hMMP Ki 15/CD
T2 construct: The catalytic domain of MMP-12 and MMP-15 enzymes were purchased commercially for these assays; purchased
Experimental: (§1) Matrix Metalloproteinase inhibitor compounds were analyzed in in vitro MMP Inhibition assays to determine their ability to inhibit the MMP cleavage of peptide substrates. Inhibition constants (Ki) were calculated from the assayed compound-MMP interactions.
(§2) Human recombinant MMP-1, MMP-2, MMP-3, MMP-7, MMP-9, MMP-12, MMP-13, MMP-14 and MMP-15 were used in these assays. The enzymes are prepared following known laboratory procedures. Protocols for the preparation and use of these enzymes are available in the scientific literature. See, e.g., Enzyme Nomenclature (Academic Press, San Diego, Calif., 1992) and the citations therein. See also Frije et al., J. Biol. Chem., 26(24), 16766-73 (1994).
(§3) The catalytic domain of MMP-12 and MMP-15 enzymes were purchased commercially for these assays.
(§4) The fluorogenic, methoxycoumarin-containing polypeptide substrate MCA-ArgProLeuGlyLeuDpaAlaArgGluArgNH2 was used as the MMP substrate in the MMP inhibition assays for human recombinant MMP-1, MMP-2, MMP-7, MMP-9, MMP-12, MMP-13, MMP-14 and MMP-15. Here, “MCA” is 7-methoxycoumarin-4-yl acetyl and “Dpa” is 3-(2,4-dinitrophenyl)-L-2,3-di-aminopropionyl group. In the absence of MMP inhibitory activity, the substrate is cleaved at the Gly-Leu peptide bond. The cleavage separates the highly fluorogenic peptide from the 2,4-dinitrophenyl quencher, resulting in an increase of fluorescent intensity.
(§5) For the human MMP-1, MMP-2, MMP-7, MMP-9, MMP-12, MMP-13, MMP-14 and MMP-15 assays, dilutions of the inhibitors (or salts thereof) were prepared in 100% dimethyl sulfoxide (DMSO). The stock solutions were diluted in Buffer A (100 mM Tris-HCl, 100 mM NaCl, 10 mM CaCl2, 0.005% polyoxyethylene 23 lauryl ether, pH 7.5) to obtain solutions with different compound concentrations, i.e., assay solutions with different concentrations of the assayed MMP inhibitory compound in 1% DMSO. The experiment controls contained the same amount of Buffer A/DMSO as the assayed sample, but contained no inhibitor.
(§6) To determine Ki, the inhibitor samples are incubated at room temperature for 1 hr in the presence of enzyme and then 4 μM of appropriate MMP substrate was added, and samples were analyzed on a Tecan SpectraFlour Plus plate reader. The excitation wavelength is 330 nm, and the emission (fluorescence) wavelength is 420 nm. In the absence of MMP inhibitory activity, the substrate is cleaved at the Gly-Leu bond resulting in an increase of relative fluorescence. Inhibition is observed as a reduced rate of increase in relative fluorescence.
(§7) The inhibitors are analyzed using a single low enzyme concentration with a single substrate concentration fixed at or below the Km. This protocol is a modification of method by Knight et al., FEBS Lett., 296(3), 263-266 (1992). Apparent inhibitory constants are determined by non-linear regression of reaction velocity as a function of inhibitor and enzyme concentration using Morrison's equation, as described by Kuzmic, Anal. Biochem. 286, 45-50 (2000). Modifications were made in the non-linear regression method to allow a common control reaction rate and effective enzyme concentration to be shared between all dose-response relationships on a given assay plate. Since the substrate concentration was chosen to be at or below the Km, the apparent Ki's from this analysis were reported as Ki's without correction for the influence of substrate.

[3] = target: T3, Human recombinant MMP-12 (Homo sapiens, UniProt P39900); assay: In vitro MMP inhibition assay, MMP-12 catalytic domain (fluorogenic peptide substrate cleavage, Ki); conditions: human MMP-12, catalytic domain (CD); read-out: hMMP Ki 12/CD
T3 construct: The catalytic domain of MMP-12 and MMP-15 enzymes were purchased commercially for these assays; purchased
Experimental: as §1, §2, §3, §4, §5, §6, §7

[4] = target: T4, Human recombinant MMP-1 (Homo sapiens, UniProt P03956); assay: In vitro MMP inhibition assay, MMP-1 (fluorogenic peptide substrate cleavage, Ki); conditions: human MMP-1, full length (FL); read-out: hMMP Ki 01/FL
T4 construct: made in house; host or cells: MMP-1-transfected HT-1080 cells
T4 sequence (P03956 100-469): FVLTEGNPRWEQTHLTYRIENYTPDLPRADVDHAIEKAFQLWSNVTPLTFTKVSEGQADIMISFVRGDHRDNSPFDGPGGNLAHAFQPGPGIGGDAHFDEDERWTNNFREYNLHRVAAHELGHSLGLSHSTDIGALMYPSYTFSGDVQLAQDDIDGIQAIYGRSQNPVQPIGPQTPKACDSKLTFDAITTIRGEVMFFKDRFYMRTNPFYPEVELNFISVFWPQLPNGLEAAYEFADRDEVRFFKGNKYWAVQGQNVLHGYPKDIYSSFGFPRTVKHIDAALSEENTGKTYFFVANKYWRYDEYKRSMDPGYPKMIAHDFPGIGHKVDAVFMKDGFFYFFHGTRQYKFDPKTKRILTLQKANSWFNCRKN
Experimental: as §1, §2
The MMP-1 proenzyme may be purified from spent media of MMP-1-transfected HT-1080 cells and the protein purified on a zinc chelating column. The MMP-2 proenzyme may be purified by gelatin Sepharose chromatography from MMP-2-transfected p2AHT2 cells. […]
The inhibitors are analyzed using a single low enzyme concentration with a single substrate concentration fixed at or below the Km. […] Apparent inhibitory constants are determined by non-linear regression of reaction velocity as a function of inhibitor and enzyme concentration using Morrison's equation, as described by Kuzmic, Anal. Biochem. 286, 45-50 (2000). […]

T2 sequence (P51511 132-304 limits assumed): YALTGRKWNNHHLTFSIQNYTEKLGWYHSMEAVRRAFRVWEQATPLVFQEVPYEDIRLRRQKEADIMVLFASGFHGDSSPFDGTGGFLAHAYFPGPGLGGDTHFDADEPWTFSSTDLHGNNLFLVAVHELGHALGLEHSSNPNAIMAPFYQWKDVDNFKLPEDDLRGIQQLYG
T3 sequence (P39900 106-263 limits assumed): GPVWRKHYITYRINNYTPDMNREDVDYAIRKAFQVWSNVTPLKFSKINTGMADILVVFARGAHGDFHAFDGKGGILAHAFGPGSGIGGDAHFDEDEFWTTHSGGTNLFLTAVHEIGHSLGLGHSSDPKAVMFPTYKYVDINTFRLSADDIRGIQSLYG

Ki [1]: 0.000118 µM | Ki [2]: > 10 µM | Ki [3]: 6.53 µM | Ki [4]: > 10 µM
Structure (SMILES): COc1cccc(CNC(=O)c2nc3ccc(F)c(OCCC4CCN(C(=O)CO)CC4)c3c(=O)[nH]2)c1 [Example 34, 6-fluoro-5-[2-(1-glycoloylpiperidin-4-yl)ethoxy]-N-(3-methoxybenzyl)-4-oxo-3,4-dihydroquinazoline-2-carboxamide]
